From ChEMBL document CHEMBL1201862, “PubChem BioAssay data set” (2004)
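Tested at 5 concentrations; 48 h exposure; 96-well plates; endpoints linearly interpolated, else capped at highest concentration. GI50 marks 50% less growth.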 Active and inactive are the calls of the source. Cut-off read from the data, not from the text of the source: active = GI50 up to about 1.1 µM and inactive = higher.

Legend:
Test in all cases: DTP human tumour cell line panel, 48 h
OVCAR-3 = tested on: OVCAR-3
RPMI-8226 = tested on: RPMI-8226
HCT-15 = tested on: HCT-15
SW-620 = tested on: SW-620
DU-145 = tested on: DU-145
SK-MEL-28 = tested on: SK-MEL-28
COLO 205 = tested on: COLO 205
RXF 393 = tested on: RXF 393
M14 = tested on: M14
SNB-19 = tested on: SNB-19
HT-29 = tested on: HT-29
OVCAR-8 = tested on: OVCAR-8
MOLT-4 = tested on: MOLT-4
MDA-MB-231 = tested on: MDA-MB-231
HOP-62 = tested on: HOP-62
UACC-62 = tested on: UACC-62
SF-539 = tested on: SF-539
MDA-MB-435 = tested on: MDA-MB-435
Malme-3M = tested on: Malme-3M
HL-60 = tested on: HL-60

Structure (SMILES) | GI50 (OVCAR-3) | GI50 (RPMI-8226) | GI50 (HCT-15) [µM] | GI50 (SW-620) | GI50 (DU-145) | GI50 (SK-MEL-28) | GI50 (COLO 205) | GI50 (RXF 393) | GI50 (M14) | GI50 (SNB-19) | GI50 (HT-29) | GI50 (OVCAR-8) | GI50 (MOLT-4) | GI50 (MDA-MB-231) | GI50 (HOP-62) | GI50 (UACC-62) | GI50 (SF-539) | GI50 (MDA-MB-435) | GI50 (Malme-3M) | GI50 (HL-60)
CC1=CSC(O)(c2ccc(Cl)cc2)c2noc(=O)n21 (configuration not stated) | 72.1 µM (inactive) | 57.7 µM (inactive) | 72.9 | > 100 µM (inactive) | > 100 µM (inactive) | 29.2 µM (inactive) | > 100 µM (inactive) | 71.6 µM (inactive) | > 100 µM (inactive) | > 100 µM (inactive) | > 100 µM (inactive) | 97.7 µM (inactive) | > 100 µM (inactive) | > 100 µM (inactive) | > 100 µM (inactive) | 44.9 µM (inactive) | > 100 µM (inactive) | 30.1 µM (inactive) |  | 
c1ccc2sc(SCSc3nc4ccccc4s3)nc2c1 | 92.7 µM (inactive) | 51.5 µM (inactive) | 20.6 | 96.8 µM (inactive) | > 100 µM (inactive) | > 100 µM (inactive) |  | > 100 µM (inactive) | > 100 µM (inactive) | > 100 µM (inactive) | 72.1 µM (inactive) | > 100 µM (inactive) | 8.81 µM (inactive) | > 100 µM (inactive) | > 100 µM (inactive) | 71 µM (inactive) |  | > 100 µM (inactive) | > 100 µM (inactive) | 
CCc1ncc(CO)n1Cc1cccc2ccccc12 | > 100 µM (inactive) | 73.3 µM (inactive) | > 100 | > 100 µM (inactive) | > 100 µM (inactive) | > 100 µM (inactive) | > 100 µM (inactive) | > 100 µM (inactive) | > 100 µM (inactive) | > 100 µM (inactive) | 96.8 µM (inactive) | > 100 µM (inactive) |  | > 100 µM (inactive) | > 100 µM (inactive) | > 100 µM (inactive) | > 100 µM (inactive) | > 100 µM (inactive) | > 100 µM (inactive) | 
Cc1ccc(Sc2ccc(C)cc2[N+](=O)[O-])c([N+](=O)[O-])c1 | > 100 µM (inactive) | > 100 µM (inactive) | > 100 | > 100 µM (inactive) |  | > 100 µM (inactive) | > 100 µM (inactive) | > 100 µM (inactive) | > 100 µM (inactive) | > 100 µM (inactive) | > 10 µM (inactive) | > 100 µM (inactive) | > 100 µM (inactive) |  | > 100 µM (inactive) | > 100 µM (inactive) | > 100 µM (inactive) |  | > 100 µM (inactive) | > 100 µM (inactive)
CCOC(=O)C1=C(C)NC(C)=C(C(=O)OCC)C1c1ccc(C)cc1 | 21.1 µM (inactive) | 30.3 µM (inactive) | 25.8 | 45.8 µM (inactive) | 71.9 µM (inactive) | > 100 µM (inactive) | > 10 µM (inactive) | 29.1 µM (inactive) | 37.6 µM (inactive) | 63.1 µM (inactive) | 27.8 µM (inactive) | 28.1 µM (inactive) | 25.9 µM (inactive) | 29.4 µM (inactive) | 46.5 µM (inactive) | 39.4 µM (inactive) | 37.1 µM (inactive) | 35.4 µM (inactive) |  | 
Cn1c(=O)oc2cc(C(=O)CN3CCN(Cc4ccc5c(c4)OCO5)CC3)c(Cl)cc21 |  | > 100 µM (inactive) | > 100 |  | > 100 µM (inactive) |  | > 100 µM (inactive) | > 100 µM (inactive) |  | > 100 µM (inactive) |  |  | > 100 µM (inactive) | > 100 µM (inactive) | > 100 µM (inactive) | > 100 µM (inactive) | > 100 µM (inactive) |  | > 100 µM (inactive) | > 100 µM (inactive)
Cc1cccc(C)c1NC(=O)CCC(=O)CC(=O)C(C)C | > 100 µM (inactive) | > 100 µM (inactive) | > 100 | > 100 µM (inactive) |  | > 100 µM (inactive) | > 100 µM (inactive) | > 100 µM (inactive) | > 100 µM (inactive) | > 100 µM (inactive) | > 100 µM (inactive) | > 100 µM (inactive) | > 100 µM (inactive) |  | > 100 µM (inactive) | > 100 µM (inactive) | > 100 µM (inactive) |  | > 100 µM (inactive) | > 100 µM (inactive)
Cn1c(=O)n2n(c1=O)[C@@H](c1ccccc1)[C@H]2c1ccccc1 | > 100 µM (inactive) |  | > 100 | > 100 µM (inactive) |  | > 100 µM (inactive) | > 100 µM (inactive) | > 100 µM (inactive) | > 100 µM (inactive) | > 100 µM (inactive) | > 100 µM (inactive) | > 100 µM (inactive) | > 100 µM (inactive) | > 100 µM (inactive) | > 100 µM (inactive) | > 100 µM (inactive) | > 100 µM (inactive) |  | > 100 µM (inactive) | 20.6 µM (inactive)
NC(=O)C(=O)N/N=C1\C(=O)N(c2ccc(Cl)cc2Cl)C(=O)C1C(=O)Nc1ccc(Cl)cc1Cl (configuration not stated) | > 100 µM (inactive) | > 100 µM (inactive) | > 100 | > 100 µM (inactive) |  | > 100 µM (inactive) | > 100 µM (inactive) | > 100 µM (inactive) | > 100 µM (inactive) | > 100 µM (inactive) | > 100 µM (inactive) | > 100 µM (inactive) | > 100 µM (inactive) |  | > 100 µM (inactive) | > 100 µM (inactive) | > 100 µM (inactive) |  | > 100 µM (inactive) | > 100 µM (inactive)
Cc1cccc(/C=N/NC(=S)Nc2ccccc2)n1 | 1.97 µM (inactive) | 3.48 µM (inactive) | 1.98 | 5.25 µM (inactive) | 4.18 µM (inactive) | 12.2 µM (inactive) | 2.75 µM (inactive) | 5.48 µM (inactive) | 2.49 µM (inactive) | 11.9 µM (inactive) | 3.17 µM (inactive) | 2.43 µM (inactive) | 3.27 µM (inactive) |  | 2.93 µM (inactive) | 3.68 µM (inactive) | 2.89 µM (inactive) | 7.6 µM (inactive) | 5.04 µM (inactive) | 
O=c1ccn([C@@H]2C[C@@H]2CO)c(=O)[nH]1 |  | > 100 µM (inactive) | > 100 | > 100 µM (inactive) | > 100 µM (inactive) | > 100 µM (inactive) | > 100 µM (inactive) | > 100 µM (inactive) | > 100 µM (inactive) | > 100 µM (inactive) | > 100 µM (inactive) | > 100 µM (inactive) |  |  | > 100 µM (inactive) | > 100 µM (inactive) | > 100 µM (inactive) | > 100 µM (inactive) | > 100 µM (inactive) | > 100 µM (inactive)
CC1(C)[C@@H](Cn2cnc3c(Cl)nc(N)nc32)CC[C@@]1(C)CO | 33 µM (inactive) | 24.2 µM (inactive) | 35.9 | 42.4 µM (inactive) | > 100 µM (inactive) | 43.5 µM (inactive) | 51.5 µM (inactive) | 65.8 µM (inactive) | 40.3 µM (inactive) | 83.4 µM (inactive) |  |  |  | 21.3 µM (inactive) | > 100 µM (inactive) | 20 µM (inactive) | > 100 µM (inactive) | 26.4 µM (inactive) |  | 
